# Laboratory results from patent US20260132160A1, “IRON REPLACEMENT TREATMENTS” (The General Hospital Corporation, priority 2022, published 2026).
# Entries after “also recorded” stand apart in the source; their conditions may differ.
# What was measured:
# [1] = pH-potentiometric titration, Fe3+ complex; format: physicochemical; conditions: 310 K, I=0.1 M NaCl
# Protocol: The aqueous solutions thermodynamics of BBG and its corresponding complexes of Fe^3+, Cu^2+, and Zn^2+ were interrogated through pH-potentiometric titration of BBG (L) in the absence and presence of 1 molar equivalent of Fe^3+, Cu^2+, or Zn^2+, FIG. 13A.
# pH-potentiometric measurements were performed using an Orion ROSS Ultra pH electrode and temperature-controlled reaction vessel held at 310 K. A standardized solution of 0.10 M NaOH was used as the titrant. The electrode was calibrated prior to each titration by titrating a standardized HCl(aq) solution at ionic strength 0.10 using NaCl as the inert electrolyte with the standardized NaOH titrant. A working slope and intercept were generated by plotting mV as a function of calculated pH, which enabled direct conversion of electrode readings to [H^+] during sample titrations. pH values recorded during the titrations refers to hydrogen ion concentration. All titration samples were prepared in solutions of 0.10 M NaCl in distilled, deionized water. Ligand solutions were prepared by dissolving a weighed quantity into water and concentration was determined from the effective weight of the ligand and confirmed by the quantity of NaOH required to consume 1 molar equivalent of ligand proton. […]
# [2] = tested on: Tmprss6 knockout mice; test: Tolerability after repeat dosing (clinical chemistry, liver qPCR); format: in vivo, mouse
# Protocol: Tmprss6 knockout mice received 29 intraperitoneal injections each containing 25 μg Fe as Fe-BBG (1.3±0.18 μg Fe per gram body weight, N=5 mice, 2 male, 3 female) or containing saline (placebo, N=5 mice, 2 male, 3 female) over 15 days. The cumulative dose of Fe was 725 μg Fe (37±0.53 μg Fe per gram body weight). The mice were euthanized 120 min after the final injection. Blood was harvested for measurement of complete blood counts, and nonheme Fe parameters. Bone marrow and liver tissue were analyzed by qPCR for expression of genes related to erythropoietic activity, Fe exposure, oxidative stress, and inflammation, the data are tabulated in FIG. 15. Clinical chemistry was also recorded, see Example 16 below. FIG. 15 data are shown as mean±standard deviation. Statistical differences between groups were determined by two-tailed Student's t-test for normally distributed values or Mann-Whitney (/test for non-normally distributed values. Significant differences are indicated by *P<0.05, **P<0.01, ****P<0.0001.
# FIG. 16 data are shown as mean±standard deviation. Statistical differences between groups were determined by two-tailed Student's t-test for normally distributed values or Mann-Whitney U test for non-normally distributed values. Significant differences are indicated by *P<0.05, **P<0.01, ***P<0.001, ****P<0.0001.
# [3] = Pharmacokinetics by dynamic magnetic resonance imaging; format: in vivo; conditions: mouse
# Description: Fe-BBG is paramagnetic, which enables us to monitor Fe-BBG blood clearance and excretion through dynamic magnetic resonance imaging.
# [4] = biological target: apo-transferrin (Homo sapiens, UniProt P02787); test: Fe delivery to apo-transferrin (fluorescence quenching, urea gel electrophoresis); format: biochemical
# Chain of apo-transferrin (P02787 20-698): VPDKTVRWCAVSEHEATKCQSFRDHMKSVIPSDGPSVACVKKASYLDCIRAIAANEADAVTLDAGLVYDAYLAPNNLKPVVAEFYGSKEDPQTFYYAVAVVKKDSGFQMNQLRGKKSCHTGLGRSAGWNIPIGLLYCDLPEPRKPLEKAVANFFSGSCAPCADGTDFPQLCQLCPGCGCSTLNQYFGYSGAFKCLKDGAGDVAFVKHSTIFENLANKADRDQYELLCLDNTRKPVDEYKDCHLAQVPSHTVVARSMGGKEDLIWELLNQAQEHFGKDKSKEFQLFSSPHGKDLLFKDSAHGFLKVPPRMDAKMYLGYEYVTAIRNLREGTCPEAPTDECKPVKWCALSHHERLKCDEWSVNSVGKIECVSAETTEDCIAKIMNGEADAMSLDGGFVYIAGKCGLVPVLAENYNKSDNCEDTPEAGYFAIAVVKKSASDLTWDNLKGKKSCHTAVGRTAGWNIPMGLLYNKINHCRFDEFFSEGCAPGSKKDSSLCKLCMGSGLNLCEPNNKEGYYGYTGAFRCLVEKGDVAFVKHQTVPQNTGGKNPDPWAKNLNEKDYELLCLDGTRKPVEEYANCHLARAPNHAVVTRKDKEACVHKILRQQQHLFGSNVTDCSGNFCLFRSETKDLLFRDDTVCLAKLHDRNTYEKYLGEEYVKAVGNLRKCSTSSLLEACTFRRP
# Protocol: Incubation with FPC was positive control, the stable compound Fe-PyC3A was negative control (Conditions: 50 mM HEPES buffer supplemented with 25 mM bicarbonate, pH 7.4, 37° C.).
# Transfer of Fe from Fe-BBG to apo-transferrin can be monitored through quenching of the apo-transferrin intrinsic fluorescence.
# Transfer of Fe from Fe-BBG to apo-transferrin can also be monitored using urea gel electrophoresis.
# [5] = Stability of Fe-BBG against trans-chelation by endogenous chelators (UV-vis); format: physicochemical
# Description: In other words, the ligand BBG binds to Fe^3+ with an estimated 230±40 times higher affinity than citrate.
smiles,measurement,setting,value
O.O.O=C([O-])CC[C@H]1C(=O)[O][Fe]2[O]c3ccccc3CN1Cc1ccccc1[O]2 [Fe-BBG],conditional pH 7.4 stability constant log KFeL PH 7.4,[1],19.51
same,oxidative stress,"[2]; from Hmox1, Gclc, NqoI taken together",did not result in oxidative stress
same,Serum amyloid A1 (SaaI) expression,"[2]; qPCR, marker of inflammation, repeat dosing",unchanged
same,liver NAD (P) H quinone dehydrogenase 1 (NqoI) expression,"[2]; qPCR, repeat dosing",did not trigger upregulation
same,liver glutamate-cysteine ligase catalytic subunit (Gclc) expression,"[2]; qPCR, repeat dosing",did not trigger upregulation
same,liver heme oxygenase 1 (Hmox1) expression,"[2]; qPCR, repeat dosing",did not trigger upregulation
same,clinical chemistry parameters,"[2]; repeat dosing, vs placebo",did not generate significant differences
same,blood elimination half life (vena cava MR signal),"[3]; 0.14 mmol/kg injection, monoexponential fit",5.5 ± 2.8 min
same,"hepatobiliary excretion (liver, gallbladder, bowel enhancement)",[3]; MRI,partial hepatobiliary excretion
same,renal excretion (kidney enhancement),[3]; MRI,rapid elimination through the kidneys; also recorded: rapid urinary excretion
same,Fe^3+ transfer to apo-transferrin,"[4]; 50 mM HEPES, 25 mM bicarbonate, pH 7.4, 37° C.",stoichiometric transfer
same,Fe^3+ transferred to apo-transferrin,"[4]; urea gel, 10 μM apo-transferrin, 0-10 equiv Fe-BBG",2 molar equivalents
same,stability against trans-chelation by endogenous chelators,[5],stable against trans-chelation reactions
same,Kcomp for challenge with citrate,"[5]; 0-10 molar equivalents citrate, absorbance at 465 nm, pH 7.4",0.006±0.002
same,UV-vis traces in presence of competing chelators,"[5]; 0.1 mM Fe-BBG, up to 100 molar equivalents bicarbonate, acetate, lactate, phosphate, pH 7.4 50 mM HEPES",remain unchanged
